Laboratory results: BindingDB's records for doi:10.1021/jm000409z (Dupont Pharmaceuticals, 2001)

Molecular target: Complement factor I (Homo sapiens) (UniProt P05156)
Assay: In vitro activity against human Complement factor I

Sequence of Complement factor I (Homo sapiens) (P05156 whole entry, looked up): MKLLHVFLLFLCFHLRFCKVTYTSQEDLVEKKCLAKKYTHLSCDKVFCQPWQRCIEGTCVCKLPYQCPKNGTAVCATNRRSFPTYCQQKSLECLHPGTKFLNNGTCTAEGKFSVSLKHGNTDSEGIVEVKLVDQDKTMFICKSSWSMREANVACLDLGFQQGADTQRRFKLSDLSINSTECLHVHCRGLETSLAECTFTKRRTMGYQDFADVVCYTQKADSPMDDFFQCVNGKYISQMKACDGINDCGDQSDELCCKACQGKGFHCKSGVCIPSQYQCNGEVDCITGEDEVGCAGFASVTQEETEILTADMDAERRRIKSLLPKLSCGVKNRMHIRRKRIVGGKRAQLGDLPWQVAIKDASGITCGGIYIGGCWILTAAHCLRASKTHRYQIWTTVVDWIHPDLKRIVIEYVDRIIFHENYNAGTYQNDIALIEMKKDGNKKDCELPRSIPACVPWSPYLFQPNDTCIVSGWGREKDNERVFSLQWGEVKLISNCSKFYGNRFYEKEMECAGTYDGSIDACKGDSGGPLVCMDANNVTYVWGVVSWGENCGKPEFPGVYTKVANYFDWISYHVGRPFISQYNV

An IC50 of 44 µM was found for `CS(=O)(=O)c1ccccc1-c1ccc(NC(=O)c2cc(C(F)(F)F)nn2-c2cccc(CN)c2)c(F)c1` in this work.
